Measurements reported in patent publication US20260306460A1, “COMPOSITION FOR REMOVING AND INHIBITING SENESCENT CELLS, AND USES THEREOF” (LIFECEUTIX CO., LTD., priority 2023, published 2026).

Assays:
SAOS-2 = test: Suppression of doxorubicin-senescent SAOS-2 tumors in nude mice, Example 19; assay type: in vivo, mouse; conditions: after DOX 10 mg/kg ip; 21 days daily; LX-5701 360 mg/kg po, LX-2101 20 mg/kg ip, LX-2102 10 mg/kg ip; DOX repeated as control
Protocol: Seven-week-old male BALB/c nude mice (KRIBB Laboratory Animal Resource Center) were acclimated to the experimental environment for one week, after which they were randomly assigned to experimental and control groups. Evaluation was performed using the same method as in Example 2-1 of WO2023-085787 A1. Cultured human osteosarcoma cell lines, SAOS-2 (10^6 cells), were mixed in phosphate-buffered saline (PBS) and administered subcutaneously to anesthetized mice using 2% isoflurane (Sigma). When the tumors reached approximately […], doxorubicin (10 mg/kg) was mixed in a 1:1 solution of distilled water and PBS (pH 7.2) and administered intraperitoneally to induce tumor senescence. After 10 days, LX-5701 mixed in PBS at a concentration of 360 mg/kg was administered orally daily for 21 days, or LX-2101 mixed in PBS solution with 5% DMSO at a concentration of 20 mg/kg or LX-2102 mixed in PBS with 5% DMSO at a concentration of 10 mg/kg was administered intraperitoneally daily for 21 days, and then the tumor size was measured. The control group was repeatedly administered a solution mixed with doxorubicin, and then the tumor size was measured.

[1] = system: HMGN1 secreted from senescent A549 cells; test: HMGN1 secretion (ELISA) from senescent A549 cancer cells, Example 12; assay type: cell-based, human; conditions: senescent untreated = 100%; 30 μM; 90 μM for LX-305, 905, 1302, 1601, 1603, 2003, 2702, 2901, 3106; 270 μM for LX-1103, 2005, 2007;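 note: A549 cells made senescent by doxorubicin exposure, with DMSO-treated cells serving as the non-senescent control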
Protocol: (§2) Cells were treated with doxorubicin or control (DMSO) and cultured.

senescent foreskin cells = test: Survival of senescent human cells treated with supernatant (secreted fluid) from death-induced cells, Example 13; assay type: cell-based; conditions: Table 8; supernatant from dying senescent cells treated at 30, 90 or 270 μM (as Example 11); senescent treated cells
naturally aged mice [2] = test: p16, MMP3, IL6 mRNA in liver of naturally aged mice (qRT-PCR), Example 15; assay type: in vivo, mouse; conditions: untreated aged = 100%, 5 days
Protocol: (§1) In the same manner as in Example 7-1 of WO2023-085787 A1, naturally aged mice were administered LX-405 (5% DMSO in PBS solution, 10 mg/kg, intraperitoneal administration), LX-801 (PBS, 100 mg/kg, intraperitoneal administration), LX-1102 (0.5% CMC-Na solution, 100 mg/kg, oral administration), LX-1801 (PBS, 50 mg/kg, intraperitoneal administration), LX-2101 (0.5% CMC-Na solution, 10 mg/kg, intraperitoneal administration), and LX-3403 (mouse anti-PD-1 antibody (BioXcell), 100 μg, intraperitoneal administration) for 5 days under the following conditions. The control group was administered only the solution in the same volume. After drug administration was completed, the method described in each Example below was performed. The mouse was sacrificed in the same manner as Example 7-2 and 7-6 of WO2023-085787 A1. Total RNA was extracted from liver tissue, and qRT-PCR was performed and analyzed using synthesized cDNA. […] The mRNA amounts of p16, MMP3, and IL6 after natural aging were induced were calculated as 100% and compared them with the mRNA amounts of p16, MMP3, and IL6 after treatment with the test compound. Furthermore, an open field test was performed to analyze aging-related frailty in mice using the same method as Example 7-7 of WO2023-085787 A1. […] The amount of activity evaluated after inducing aging was calculated as 100% and compared it with the amount of activity evaluated after treatment with the test compound.

naturally aged mice [3] = test: Open field test in naturally aged mice, Example 15; assay type: in vivo, mouse; conditions: untreated aged = 100%; 5 days; doses as p16 mRNA
Protocol: as §1

naturally aged mice [4] = test: Anti-aging evaluation in naturally aged mice, Example 31, Table 55; assay type: in vivo, mouse; conditions: for Femur Ctsk mRNA / Kidney Agtr1a mRNA / Liver IL6 mRNA / Liver MMP3 mRNA / Liver p16 mRNA / Open Field Test Time in Center: untreated = 100%; for Heart Sur2a mRNA / Joint Col2a1 mRNA / Skin Col1a1 mRNA / Skin SDF1 mRNA: untreated = 1.0; for Muscle Mass: untreated 0.64 g; for Fat Mass: untreated 0.82 g; for Cataract incidence: untreated 83%;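 for all read-outs here: Vehicle-dosed control mice received solution alone at matching volume, values compare test-compound-treated aged mice against that control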
Protocol: After the end of drug administration, the method described in each example below was performed. […] The mRNA amounts of p16, MMP3, and IL6 after natural aging was induced were calculated as 100% and compared with the mRNA amounts of p16, MMP3, and IL6 after treatment with the test compound. In addition, an open field test for the analysis of aging-related frailty, agtr1a mRNA analysis for kidney damage and disease evaluation, col1a1 and SDF1 mRNA analysis for skin aging evaluation such as wrinkles/loss of elasticity/hyperpigmentation, col2a1 mRNA analysis for evaluating joint aging such as osteoarthritis, sur2a mRNA analysis for evaluating cardiac aging such as decreased cardiac load resistance, ctsk mRNA analysis for evaluating bone diseases due to aging such as osteoporosis, muscle tissue weight for analyzing sarcopenia, fat tissue weight for analyzing lipoatrophy, and cataract incidence analysis were performed in mice. For cataract incidence analysis, the drug was administered twice a week under the conditions specified above, and biweekly examinations were conducted until death.

[5] = system: bleomycin-induced pulmonary fibrosis mice; test: Bleomycin-induced pulmonary fibrosis mice, Example 31, Table 56; assay type: in vivo, mouse; conditions: untreated = 100%
How it was run: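 After treatment with test compound or vehicle alone, lungs of bleomycin-induced pulmonary fibrosis mice were harvested. Total RNA extracted and gene expression quantified by qRT-PCR.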

[6] = system: carbon tetrachloride-induced liver fibrosis mice; test: Carbon tetrachloride-induced liver fibrosis mice, Example 31, Table 57; assay type: in vivo, mouse; conditions: CCl4-induced liver fibrosis mice, untreated = 100%
How it was run: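 Mice with induced hepatic fibrosis received either the test compound or, as controls, an equal volume of vehicle solution alone. Once dosing ended, liver tissue was harvested and total RNA was isolated. cDNA was synthesized from this RNA, and quantitative RT-PCR was run on it to measure hepatic mRNA levels of the fibrosis- and senescence-related genes.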

[7] = system: HMGN1 secreted from senescent human cells; test: HMGN1 secretion (ELISA) from doxorubicin-induced senescent human cells, Example 11; assay type: cell-based; conditions: senescent untreated = 100%; 30 μM; 90 μM for LX-305, 1302, 1603, 2005, 2702, 2901, 3106; 270 μM for LX-1103, 2007
senescent human cells = test: Viability of doxorubicin-induced senescent human cells (CellTiter-Glo), Example 11; assay type: cell-based; conditions: 0 μM = 100
Protocol: Cells in which senescence was induced by treatment with doxorubicin were treated with the test compound at designated concentrations and measured using the CellTiter-Glo Luminescent Cell Viability Assay (Promega).
After 3 days, cell viability was measured using CellTiter-Glo Luminescent Cell Viability Assay (Promega) or light microscopy.

senescent A549 cells = test: Viability of senescent A549 cancer cells (CellTiter-Glo), Example 12; assay type: cell-based, human; conditions: 0 μM = 100
Protocol: as §2
Cancer cells in which aging was induced by treatment with doxorubicin were treated with the test compound at designated concentrations and measured using the CellTiter-Glo Luminescent Cell Viability Assay (Promega).

SMILES | HMGN1 [1] | Survival (senescent foreskin cells) | Femur Ctsk mRNA (naturally aged mice [4]) | Heart Sur2a mRNA (naturally aged mice [4]) | Joint Col2a1 mRNA (naturally aged mice [4]) | Kidney Agtr1a mRNA (naturally aged mice [4]) | Liver IL6 mRNA (naturally aged mice [4]) | Liver MMP3 mRNA (naturally aged mice [4]) | Liver p16 mRNA (naturally aged mice [4]) | Open Field Test Time in Center (naturally aged mice [4]) | Skin Col1a1 mRNA (naturally aged mice [4]) | Skin SDF1 mRNA (naturally aged mice [4]) | Muscle Mass (naturally aged mice [4]) | Fat Mass (naturally aged mice [4]) | Cataract incidence (naturally aged mice [4]) | Lung p16 mRNA [5] | Col1a1 mRNA [5] | Liver p16 mRNA [6] | Col1a1 mRNA [6] | HMGN1 [7] | further results
COc1cccc2c1C(=O)c1c(O)c3c(c(O)c1C2=O)C[C@@](O)(C(=O)CO)C[C@@H]3O[C@H]1C[C@H](N)[C@H](O)[C@H](C)O1 [DOX, doxorubicin] | – | – | – | – | – | – | – | – | – | – | – | – | – | – | – | – | – | – | – | – | Tumor Diameter (SAOS-2): 16.1 (±0.9) mm
Fc1ccc(-n2cc(CCCCN3CCC4(CC3)OCc3ccccc34)c3ccccc32)cc1 [LX-1102, Siramesine] | 324% | 52.9 | 62% | 1.8 fold | 1.7 fold | 80% | 74% | 71% | 58% | 148% | 2.5 Fold | 2.3 fold | 0.65 g | 0.95 g | 77% | 59 (±3.9) % | 68 (±4.1) % | 76 (±2.8) % | 64 (±4.7) % | – | p16 mRNA (naturally aged mice [2]; LX-405 10 mg/kg ip, LX-801 100 mg/kg ip, LX-1102 100 mg/kg po, LX-1801 50 mg/kg ip, LX-2101 10 mg/kg ip, LX-3403 100 μg ip): 75.2 (±5.5) %; IL6 mRNA (naturally aged mice [2]; doses as p16 mRNA): 84.5 (±8.9) %; MMP3 mRNA (naturally aged mice [2]; doses as p16 mRNA): 89.7 (±12.5) %; Open Field Test Time in Center (naturally aged mice [3]): 163 (±7.9) %
CCOC(=O)[C@@H](N)CCC(=O)N[C@@H](CSCc1ccccc1)C(=O)N[C@@H](C(=O)OCC)c1ccccc1 [LX-2602, Ezatiostat] | 283% | 69.5 | 59% | 1.7 fold | 2.2 fold | 61% | 80% | 64% | 71% | 158% | 2.5 Fold | 2.0 fold | 0.69 g | 0.84 g | 81% | 68 (±3.5) % | 58 (±2.9) % | 77 (±3.9) % | 82 (±3.7) % | 208% | Survival (senescent human cells; 1.1 μM): 97.3%; Survival (senescent human cells; 10 μM): 76.9%; Survival (senescent human cells; 30 μM): 47.6%; Survival (senescent human cells; […]): 92.5%; Survival (senescent A549 cells; 1.1 μM): 102.7%; Survival (senescent A549 cells; 10 μM): 96%; Survival (senescent A549 cells; 30 μM): 32.5%; Survival (senescent A549 cells; […]): 107.4%
CN(Cc1cnc2nc(N)nc(N)c2n1)c1ccc(C(=O)N[C@@H](CCC(=O)O)C(=O)O)cc1 [LX-2901, Methotrexate] | 189% | 97.5 | 51% | 1.7 fold | 4.0 fold | 67% | 55% | 72% | 64% | 167% | 1.7 Fold | 1.8 fold | 0.69 g | 0.90 g | 59% | 72 (±5.7) % | 61 (±4.3) % | 59 (±1.3) % | 73 (±3.6) % | 167% | Survival (senescent human cells; 1.1 μM): 103.3%; Survival (senescent human cells; 10 μM): 104.8%; Survival (senescent human cells; 30 μM): 93.6%; Survival (senescent human cells; 90 μM): 49.9%; Survival (senescent human cells; […]): 97.8%; Survival (senescent A549 cells; 1.1 μM): 89%; Survival (senescent A549 cells; 10 μM): 90.4%; Survival (senescent A549 cells; 30 μM): 92.3%; Survival (senescent A549 cells; 90 μM): 37.2%; Survival (senescent A549 cells; […]): 87.8%
Cc1nc(-c2nc(-c3ccc(OC(F)(F)F)cc3)no2)nn1Cc1cccc(N2CCC(S(C)(=O)=O)CC2)c1 [LX-3200] | 305% | 54.9 | 68% | 1.4 fold | 1.3 fold | 62% | 67% | 71% | 77% | 188% | 1.4 Fold | 1.6 fold | 0.69 g | 1.03 g | 72% | 76 (±5.7) % | 63 (±6.9) % | 75 (±9.8) % | 80 (±9.6) % | 234% | Survival (senescent human cells; 1.1 μM): 92.2%; Survival (senescent human cells; 10 μM): 14.3%; Survival (senescent human cells; […]): 78.6%; Survival (senescent A549 cells; 1.1 μM): 94.9%; Survival (senescent A549 cells; 10 μM): 61.6%; Survival (senescent A549 cells; 30 μM): 1.6%; Survival (senescent A549 cells; […]): 91.7%
